The text below walks through data of patent US7611856B2 (priority 2003, dated 2009).

The assay has as its system BoNT. In kind it is biochemical, Clostridium botulinum.

“(SNRTRIDQGNQRATRNleL)4K2KC(beta)A [Substrate 39]”: the “specific turnover over unspecific protease background cleavage reactions” value was “shown to increase the specific turnover”.
